Laboratory results reported in patent US20260159536A1, “AKR1C3-ACTIVATED DNA ALKYLATING AGENT, AND MEDICAL APPLICATION THEREOF” (ASCENTAWITS PHARMACEUTICALS, LTD., priority 2021, published 2026).

Columns and labels:
[1] = Plasma stability test, monkey; assay type: in vitro ADME; details: 37° C.
Protocol: (§1) The pH of the plasma was checked and recorded. Note: a.
(§2) The final concentration of solvent was 0.5%.
(§3) The assay was performed in duplicate. […] The tubes were mixed by vortex for 5 minutes.

[2] = tested on: huH-1; test: Cytotoxicity on hepatocellular carcinoma cell line huH-1; assay type: cell-based
Protocol: If not otherwise specified, IC50 values were measured by the following experimental methods:
a) Cells were plated for 24 hours, and then the compounds acted singly. 99 μL of growth medium was supplemented per well, and then 1 μL of 200× compound was added, gently shaken to ensure uniform mixing, and then placed in a 37° C., 5% CO2 incubator.
b) The cell plate was placed in the incubator for 72 hours.
b) 100 μL of CTG reagent (CelltiterGlo kit) was added to each well, the plate was placed in a rapid oscillator and shaken for 2 minutes, and then placed at room temperature for 30 minutes away from light.
The IC50 was calculated using GraphPad Prism 8 software and the IC50 (half inhibitory concentration) of the compounds was obtained using the following non-linear fitting formula: […]
Using the same experimental methods as described above, Compounds A, B and C were further tested for cytotoxicity against different hepatocellular carcinoma (HCC) cell lines SNU354, SNU886, MHCC97H and huH-1, and the results were shown in Table 2 below: […]

[3] = tested on: HuPrime model LI1005 human liver cancer; test: In vivo pharmacodynamics, liver cancer LI1005 PDX model; design: species or system BALB/c nude mice; details: for Tumor volume (x ± S): in mm³ (unit assumed)
[4] = Plasma stability test, mouse; assay type: in vitro ADME; details: 5 μM, 37° C.
Protocol: as §1, §2, §3

[5] = Chiral stability under long-term and accelerated storage conditions; assay type: physicochemical
Protocol: Isomer stability under long-term and accelerated conditions was studied.
Compound A and isomers A-P1 and A-P2 were investigated for traits and isomeric stability at −20±5° C., 5° C.±3° C., 25° C.±2° C. (60%±5% RH) and 40° C.±2° C.

[6] = 1.25 mg/kg, QDx5, 2 days off, 2 weeks off, QDx5, i.p., Day 35
[7] = 2.5 mg/kg, QDx5, 2 days off, 2 weeks off, QDx5, i.p., Day 35
[8] = 5 mg/kg, QDx5, 2 days off, 2 weeks off, QDx5, i.p., Day 35
[9] = 10 mg/kg, QWx2, 1 week off, QWx2, i.v., Day 35
[10] = 25° C. ± 2° C./60% ± 5% RH, 6 months
[11] = 40° C. ± 2° C./75% ± 5% RH, 6 months

## O=[N+]([O-])c1ccc(C(OP(=O)(N2CC2)N2CC2)C(F)(F)F)cc1Oc1ccc(-c2ccc(F)cc2)c(F)c1 (racemic) [Compound A]
[1]; Monkey plasma, 5 μM
  Percentage remaining after 2 hours in plasma: 79.20%
[1]; monkey plasma
  remained in plasma after 2 hours: 79.20%
[2]; Homo sapiens, HuH-1
  IC50: 0.306 µM
[2]; IC50 ratio, huH-1
  ratio A/B: 1.19
  ratio A/C: 1.14
[3]; 1.25 mg/kg i.p., Day 0
  Tumor volume: 102.66 mm^3
[3]; 1.25 mg/kg i.p., Day 3
  Tumor volume: 157.94 mm^3
[3]; 1.25 mg/kg i.p., Day 7
  Tumor volume: 198.68 mm^3
[3]; 1.25 mg/kg i.p., Day 10
  Tumor volume: 188.83 mm^3
[3]; 1.25 mg/kg i.p., Day 14
  Tumor volume: 196.25 mm^3
[3]; 1.25 mg/kg i.p., Day 17
  Tumor volume: 204.85 mm^3
[3]; 1.25 mg/kg i.p., Day 21
  Tumor volume: 228.87 mm^3
[3]; 1.25 mg/kg i.p., Day 24
  Tumor volume: 256.49 mm^3
[3]; 1.25 mg/kg i.p., Day 28
  Tumor volume: 246.26 mm^3
[3]; 1.25 mg/kg i.p., Day 31
  Tumor volume: 282.93 mm^3
[3]; 1.25 mg/kg i.p., Day 35
  Tumor volume: 334.61 mm^3
[3]; [6]
  Relative tumor volume (x ± S): 3.28 ± 0.53
  T/C (%): 32.47%
  TGI (%): 67.53%
  Tumor volume (x ± S): 334.61 ± 61.24
[3]; 2.5 mg/kg i.p., Day 0
  Tumor volume: 103.02 mm^3
[3]; 2.5 mg/kg i.p., Day 3
  Tumor volume: 156.63 mm^3
[3]; 2.5 mg/kg i.p., Day 7
  Tumor volume: 197.27 mm^3
[3]; 2.5 mg/kg i.p., Day 10
  Tumor volume: 156.39 mm^3
[3]; 2.5 mg/kg i.p., Day 14
  Tumor volume: 147.34 mm^3
[3]; 2.5 mg/kg i.p., Day 17
  Tumor volume: 148.94 mm^3
[3]; 2.5 mg/kg i.p., Day 21
  Tumor volume: 173.92 mm^3
[3]; 2.5 mg/kg i.p., Day 24
  Tumor volume: 180.83 mm^3
[3]; 2.5 mg/kg i.p., Day 28
  Tumor volume: 178.96 mm^3
[3]; 2.5 mg/kg i.p., Day 31
  Tumor volume: 182.98 mm^3
[3]; 2.5 mg/kg i.p., Day 35
  Tumor volume: 178.69 mm^3
[3]; [7]
  Relative tumor volume (x ± S): 1.60 ± 0.42
  T/C (%): 15.88%
  TGI (%): 84.12%
  Tumor volume (x ± S): 178.69 ± 65.98
[3]; 5 mg/kg i.p., Day 0
  Tumor volume: 103.15 mm^3
[3]; 5 mg/kg i.p., Day 3
  Tumor volume: 160.80 mm^3
[3]; 5 mg/kg i.p., Day 7
  Tumor volume: 167.82 mm^3
[3]; 5 mg/kg i.p., Day 10
  Tumor volume: 120.93 mm^3
[3]; 5 mg/kg i.p., Day 14
  Tumor volume: 97.35 mm^3
[3]; 5 mg/kg i.p., Day 17
  Tumor volume: 90.25 mm^3
[3]; 5 mg/kg i.p., Day 21
  Tumor volume: 106.81 mm^3
[3]; 5 mg/kg i.p., Day 24
  Tumor volume: 115.29 mm^3
[3]; 5 mg/kg i.p., Day 28
  Tumor volume: 110.01 mm^3
[3]; 5 mg/kg i.p., Day 31
  Tumor volume: 102.22 mm^3
[3]; 5 mg/kg i.p., Day 35
  Tumor volume: 85.00 mm^3
[3]; [8]
  Relative tumor volume (x ± S): 0.77 ± 0.18
  T/C (%): 7.62%
  TGI (%): 92.38%
  Tumor volume (x ± S): 85.00 ± 26.32
[3]; 10 mg/kg i.v., Day 0
  Tumor volume: 102.58 mm^3
[3]; 10 mg/kg i.v., Day 3
  Tumor volume: 127.72 mm^3
[3]; 10 mg/kg i.v., Day 7
  Tumor volume: 172.58 mm^3
[3]; 10 mg/kg i.v., Day 10
  Tumor volume: 138.61 mm^3
[3]; 10 mg/kg i.v., Day 14
  Tumor volume: 127.60 mm^3
[3]; 10 mg/kg i.v., Day 17
  Tumor volume: 132.95 mm^3
[3]; 10 mg/kg i.v., Day 21
  Tumor volume: 151.00 mm^3
[3]; 10 mg/kg i.v., Day 24
  Tumor volume: 181.36 mm^3
[3]; 10 mg/kg i.v., Day 28
  Tumor volume: 191.25 mm^3
[3]; 10 mg/kg i.v., Day 31
  Tumor volume: 186.25 mm^3
[3]; 10 mg/kg i.v., Day 35
  Tumor volume: 179.97 mm^3
[3]; [9]
  Relative tumor volume (x ± S): 1.87 ± 0.54
  T/C (%): 18.53%
  TGI (%): 81.47%
  Tumor volume (x ± S): 179.97 ± 51.38
[3]; Compound A 10, 1.25, 2.5, 5 mg/kg, Sorafenib 30 mg/kg
  tolerability / body weight: well tolerated
[4]
  Percentage remaining after 2 hours in plasma: 38.19%
[5]; 0 month
  Isomer peak A-P1: 49.8%
  Isomer peak A-P2: 50.2%
[5]; 5° C. ± 3° C., 6 months
  Isomer peak A-P1: 49.9%
  Isomer peak A-P2: 50.1%
  Isomer transformation: 0.1%
[5]; 5° C., 25° C./60% RH, 40° C./75% RH, 6 months
  properties and chirality after storage: essentially unchanged
[5]; [10]
  Isomer peak A-P1: 49.9%
  Isomer peak A-P2: 50.1%
  Isomer transformation: 0.1%
[5]; [11]
  Isomer peak A-P1: 49.9%
  Isomer peak A-P2: 50.1%
  Isomer transformation: 0.1%
